Experimental data from ChEMBL document CHEMBL3588795, “GPCR crystal structures: Medicinal chemistry in the pocket” (Bioorg Med Chem, 2015).

Biological target: Metabotropic glutamate receptor 1 (Homo sapiens, UniProt Q13255)
Test: Negative allosteric modulation of human mGluR1alpha expressed in syrian hamster AV-12 cells assessed as inhibition of quisqualate-induced phosphoinositide hydrolysis
Type: cell-based, AV12

Chain of Metabotropic glutamate receptor 1 (Q13255 whole entry): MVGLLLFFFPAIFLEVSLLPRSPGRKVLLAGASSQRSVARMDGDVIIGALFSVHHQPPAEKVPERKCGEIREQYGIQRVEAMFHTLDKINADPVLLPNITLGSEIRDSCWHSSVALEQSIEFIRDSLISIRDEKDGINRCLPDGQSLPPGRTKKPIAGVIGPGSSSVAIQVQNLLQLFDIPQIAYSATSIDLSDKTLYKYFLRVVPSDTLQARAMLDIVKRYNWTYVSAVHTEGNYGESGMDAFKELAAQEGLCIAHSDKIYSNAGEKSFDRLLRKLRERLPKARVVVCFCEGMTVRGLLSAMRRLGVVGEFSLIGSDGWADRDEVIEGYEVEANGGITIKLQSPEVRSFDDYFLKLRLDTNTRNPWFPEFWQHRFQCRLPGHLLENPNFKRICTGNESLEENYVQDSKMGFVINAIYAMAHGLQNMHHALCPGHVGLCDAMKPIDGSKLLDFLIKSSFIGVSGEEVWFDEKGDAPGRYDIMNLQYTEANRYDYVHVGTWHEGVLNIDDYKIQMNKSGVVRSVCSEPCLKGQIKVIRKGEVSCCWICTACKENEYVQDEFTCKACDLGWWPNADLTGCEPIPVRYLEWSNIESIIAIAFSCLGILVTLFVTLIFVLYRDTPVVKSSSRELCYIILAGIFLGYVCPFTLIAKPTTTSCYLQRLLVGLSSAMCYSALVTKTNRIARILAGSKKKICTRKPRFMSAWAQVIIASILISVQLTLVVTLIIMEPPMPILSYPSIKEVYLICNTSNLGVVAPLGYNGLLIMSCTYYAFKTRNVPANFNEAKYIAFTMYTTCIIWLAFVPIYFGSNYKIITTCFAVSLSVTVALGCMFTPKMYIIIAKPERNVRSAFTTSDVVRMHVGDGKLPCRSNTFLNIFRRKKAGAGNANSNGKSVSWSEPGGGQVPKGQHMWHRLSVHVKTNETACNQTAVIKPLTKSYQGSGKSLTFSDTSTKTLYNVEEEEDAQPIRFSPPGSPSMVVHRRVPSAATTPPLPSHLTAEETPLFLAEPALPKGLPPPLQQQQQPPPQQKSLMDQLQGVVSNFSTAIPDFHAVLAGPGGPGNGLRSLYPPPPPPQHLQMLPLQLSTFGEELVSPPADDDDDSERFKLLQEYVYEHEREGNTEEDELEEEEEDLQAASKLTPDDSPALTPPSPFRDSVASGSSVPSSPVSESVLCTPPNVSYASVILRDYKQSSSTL

- IC50: 8 µM
SMILES: Cc1cc(C(=O)O)ccc1[C@H](N)C(=O)O
